In data set [1] the test system is HIV (HTLV-IIIB) in H9 cells. In words: Inhibition of human immunodeficiency virus multiplication in cell culture (HIV infection of H9 cells). In kind it is cell-based. The settings on record: Human immunodeficiency virus 1, 6-7 days, HIV antigen containing cells by immunofluorescence, read-out: Concentration for 50% inhibition (IC50) of human immunodeficiency virus multiplication in cell culture. On the procedure:
H9 cells, 10^5 cells per well on a 24 well plate, suspended in 2 ml RPMI-medium containing 10% fetal calf serum, 100 μg/ml penicillin, 10 μg/ml streptomycin sulfate and 2 μg/ml polybrene are exposed to HIV (HTLV-IIIB) and different concentrations of the inhibiting compounds. The plates are incubated at 37° C. in 5% CO2 for 6-7 days. The contents in each well is then homogenized with a pipette and transferred to a centrifuge tube. After centrifugation for 10 min at 1500 rpm the supernatent is removed and the cell pellet is analyzed by fixing in methanol on glass plates. Human HIV positive serum diluted 1:80 or 1:160 is added and incubated for 30 min at 37°. The plate is then washed with phosphate-buffered saline (PBS) containing Ca^2+ and Mg^2+. Sheep antihuman conjugate (FITC) is added and after a new incubation the plate is again washed with PBS. Contrast staining is done with Evans blue and after drying the frequency of HIV antigen containing cells is determined in a microscope.

Data set [2] has as its target Duck hepatitis virus polymerase (Duck hepatitis B virus, UniProt P03162). The data set can be described thus: Inhibition of duck hepatitis B virus polymerase (reverse transcriptase) using DNA and RNA templates. The settings on record: compounds used as 5'-triphosphates. The format is biochemical. An excerpt:
(§1) There is no cell culture assay which can be used to determine the efficiacy of compounds against hepatitis B virus. However, the hepatitis B virus encodes a reverse transcriptase, Summer and Mason, Cell 29 (1982) 403-415, obligatory for hepatitis b virus replication. This enzyme, which is also a consituent of the hepatitis B virus particles, can be used to evaluate the inhibitory activity against hepatitis B virus of nucleoside analogues provided that these compounds are used as their metabolic products, 5'-triphosphates. […] The hepatitis B virus reverse transcriptase can, as all reverse transcriptases, use both RNA and DNA templates, and included in Table 2 is also the inhibition of duck hepatitis B virus polymerase using both DNA and RNA templates.
(§2) The assays were performed as described in Tao et al. Hepatitis B virus was for a long time considered to be a DNA virus with a viral DNA polymerase being part of the virus particles. However, it was discovered that the hepatitis B virus DNA polymerase activity was due to a reverse transcriptase and that this virus should be regarded as a retrovirus which, in contrast to other retroviruses, uses its DNA phase as genetic material in the virus particles. Summers and Mason. Hepatitis B viruses are therefore not related to DNA viruses such as herpes-viruses or adeno-virus, but rather are related to retroviruses such as HIV.

For data set [3] the following is noted: monkeys, Tao et al., cited from earlier work; for absorption: oral; for Elimination half-lives: range given for both compounds together.
For data set [4], the target named is Hepatitis B virus polymerase (Hepatitis B virus genotype D subtype ayw, UniProt P03156). The data set can be described thus: Inhibition of hepatitis B virus polymerase (reverse transcriptase) using a DNA template. The format is biochemical. The settings on record: compounds used as 5'-triphosphates.
Chain of Hepatitis B virus polymerase (P03156 whole entry): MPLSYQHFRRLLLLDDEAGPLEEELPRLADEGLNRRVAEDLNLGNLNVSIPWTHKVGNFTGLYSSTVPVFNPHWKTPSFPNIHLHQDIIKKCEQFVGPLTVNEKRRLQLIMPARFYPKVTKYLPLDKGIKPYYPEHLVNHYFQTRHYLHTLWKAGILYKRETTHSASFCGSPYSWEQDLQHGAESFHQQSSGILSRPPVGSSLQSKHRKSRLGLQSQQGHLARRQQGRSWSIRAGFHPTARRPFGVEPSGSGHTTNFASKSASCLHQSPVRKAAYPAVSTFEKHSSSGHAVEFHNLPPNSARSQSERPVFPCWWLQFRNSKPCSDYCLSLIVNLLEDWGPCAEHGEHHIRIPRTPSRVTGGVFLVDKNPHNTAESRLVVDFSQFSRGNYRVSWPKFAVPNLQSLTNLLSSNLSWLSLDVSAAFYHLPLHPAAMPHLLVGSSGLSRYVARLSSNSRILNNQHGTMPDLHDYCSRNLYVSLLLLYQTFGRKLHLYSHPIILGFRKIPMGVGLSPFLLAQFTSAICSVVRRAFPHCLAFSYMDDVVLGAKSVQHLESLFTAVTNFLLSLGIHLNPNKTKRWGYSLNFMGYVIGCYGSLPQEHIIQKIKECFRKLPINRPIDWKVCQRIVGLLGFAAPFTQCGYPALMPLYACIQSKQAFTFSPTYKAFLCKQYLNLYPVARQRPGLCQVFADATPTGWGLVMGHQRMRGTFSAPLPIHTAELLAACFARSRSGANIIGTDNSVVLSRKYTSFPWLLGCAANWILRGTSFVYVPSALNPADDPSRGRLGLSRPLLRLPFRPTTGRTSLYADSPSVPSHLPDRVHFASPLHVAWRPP
Source text: as §1, §2

[5] abbreviates: DNA template, read-out: IC50, duck hepatitis virus polymerase, DNA template.
Setting [6] is: RNA template, read-out: IC50, duck hepatitis virus polymerase, RNA template.

Molecules are shown by their SMILES. pIC50: −log10 of the molar value. Where two headings read alike, the source gives them in different places.

Chain of Duck hepatitis virus polymerase (P03162 whole entry): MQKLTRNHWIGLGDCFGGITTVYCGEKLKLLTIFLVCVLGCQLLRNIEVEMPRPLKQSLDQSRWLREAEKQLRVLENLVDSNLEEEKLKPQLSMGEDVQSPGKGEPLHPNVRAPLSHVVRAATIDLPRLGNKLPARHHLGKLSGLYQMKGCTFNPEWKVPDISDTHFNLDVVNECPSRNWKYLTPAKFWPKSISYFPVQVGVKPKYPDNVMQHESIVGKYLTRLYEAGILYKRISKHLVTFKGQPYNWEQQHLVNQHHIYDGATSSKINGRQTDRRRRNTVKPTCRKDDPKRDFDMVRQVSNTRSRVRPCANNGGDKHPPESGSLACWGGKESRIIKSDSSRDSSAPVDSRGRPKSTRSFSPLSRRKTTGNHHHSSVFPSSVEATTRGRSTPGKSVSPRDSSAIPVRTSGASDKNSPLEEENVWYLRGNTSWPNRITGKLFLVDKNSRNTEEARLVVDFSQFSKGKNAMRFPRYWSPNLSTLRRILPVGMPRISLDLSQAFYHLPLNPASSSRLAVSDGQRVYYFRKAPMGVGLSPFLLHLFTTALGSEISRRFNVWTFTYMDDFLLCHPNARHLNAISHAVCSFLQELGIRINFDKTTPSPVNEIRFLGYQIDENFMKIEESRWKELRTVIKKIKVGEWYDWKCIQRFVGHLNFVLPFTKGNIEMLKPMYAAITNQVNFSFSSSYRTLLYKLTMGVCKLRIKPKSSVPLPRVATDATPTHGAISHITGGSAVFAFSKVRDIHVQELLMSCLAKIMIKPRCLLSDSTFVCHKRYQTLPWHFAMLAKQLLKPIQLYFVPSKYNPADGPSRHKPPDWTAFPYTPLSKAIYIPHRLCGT

Consider `CCc1cn([C@H]2C[C@H](O)[C@@H](CO)O2)c(=O)[nH]c1=O` [5-ethyl-2'-deoxyuridine], for which the pIC50 in data set [1] is 6.00.

For `CCc1cn([C@@H]2O[C@H](CO)[C@@H](O)[C@@H]2O)c(=O)[nH]c1=O` [1-(β-D-arabinofuranosyl)-5-ethyluracil], the pIC50 in data set [1] is 5.70.

Consider `CC=Cc1cn([C@H]2C[C@H](O)[C@@H](CO)O2)c(=O)[nH]c1=O` [5-(1-propenyl)-2'-deoxyuridine], for which the pIC50 in data set [1] was over 6.00; in data set [2] (setting [5]) it was 6.96; in data set [2] (setting [6]), 6.82; in data set [4] it was 7.00. The absorption entry in data set [3] is reported as “moderately well absorbed”. In addition, the Elimination half-lives in data set [3] was 1.2 to 1.8 h.

Take `O=c1[nH]c(=O)n([C@H]2C[C@H](O)[C@@H](CO)O2)cc1C1CC1` [5-cyclopropyl-2'-deoxyuridine]: the pIC50 in data set [1] is over 6.00.

`O=c1[nH]c(=O)n([C@H]2C[C@H](O)[C@@H](CO)O2)cc1CO` [5-hydroxymethyl-2'-deoxyuridine]: the pIC50 in data set [1] is over 6.00; in data set [2] (setting [5]) it was 6.30; in data set [2] (setting [6]) it was 6.62; in data set [4] it was 6.60.

Take `C=C(C)c1cn([C@@H]2O[C@H](CO)[C@@H](O)[C@@H]2O)c(=O)[nH]c1=O` [1-(β-D-arabinofuranosyl)-5-isopropenyluracil]: in data set [1], the pIC50 is 5.70.

As for `CCc1cn([C@H]2C[C@H](O)[C@@H](CO)O2)c(=O)[nH]c1=O` [5-Ethyl-2'-deoxythymidine], the pIC50 was 6.05 in data set [2] (setting [5]), 6.13 in data set [2] (setting [6]) and 6.60 in data set [4].

As for `CC=Cc1cn([C@@H]2O[C@H](CO)[C@@H](O)[C@@H]2O)c(=O)[nH]c1=O` [1-(β-D-arabinofuranosyl)-5-(1-propenyl)-uracil], the pIC50 in data set [1] was over 6.00; in data set [2] (setting [5]), 6.47; in data set [2] (setting [6]) it was 6.27; in data set [4], 6.62. In addition, the absorption result in data set [3] was “moderately well absorbed”. Moreover, the Elimination half-lives in data set [3] is 1.2 to 1.8 h.

For the molecule `C=C(C)c1cn([C@H]2C[C@H](O)[C@@H](CO)O2)c(=O)[nH]c1=O` [5-(1-isopropenyl)-2'-deoxyuridine], the pIC50 in data set [1] is 5.00 to 6.00.

Source of the values: patent US5215971A, “Antiviral pharmaceutical composition comprising 5-substituted pyrimidine nucleosides” (priority 1986, dated 1993).
